Earlier results on three compounds are cited in US4571403A, “Antianginal medicated compound” (Institut Organicheskoi Khimii Imeni N.D. Zelinskogo …, priority 1984, dated 1986).

Structures can show the parent of a compound that is named as a salt.

The data set has as its system myocardium / blood circulation. To be noted: prior art; cited from earlier work.

With `O=C(CCN1CCN2CCCC2C1)N1c2ccccc2Sc2ccc(Cl)cc21` (centres unmarked) [nonachlazine], the adrenergic effect result is reported as “β-adrenostimulating component of the effect on myocardium”; the contraindications result is “cannot be administered in the case of kidney and liver diseases”; the systemic arterial pressure result was “lasting hypertension of the arterial pressure”.

As to `CCCCc1oc2ccccc2c1C(=O)c1cc(I)c(OCCN(CC)CC)c(I)c1` [Cardaron, [2-butyl-3-benzofuranyl]-[4-(2-diethylaminoethoxy)-3,5-diodophenyl]ketone hydrochloride], the adrenergic effect entry was “antiadrenergic preparations with a mixed effect”, the “blood flow / blood supply of ischemized zones of myocardium” value is “no selective effect on blood supply of the ischemized zone of myocardium”, the “contractability of the heart (inotropic effect)” value is on record as “negative inotropic effect on myocardium” and the duration of action result is given as “short duration of its action”. Besides, the side effects result is listed as “affection of eye cornea” and the therapeutic range result is reported as “narrow therapeutic range”.

Take `O=[N+]([O-])OCC(CO[N+](=O)[O-])O[N+](=O)[O-]` [Trinitroglycerol, trinitroglycerol]: the “incompatibility with other pharmaceutical preparations” value is listed as “incompatibility with some other pharmaceutical preparations” and the side effects result is reported as “bad tolerance of the preparation by certain categories of patients accompanied by strong headaches”.
